The IC50 is the point on the concentration scale where inhibition reaches its midpoint.

SMILES strings stand for the structures. Like-named read-outs stand apart in the source and are kept apart here. Some results are limits rather than exact numbers.

One assay deals with parietal cells. As to the kind of experiment: Isolated Parietal Cell Assay (14C-aminopyrine accumulation, histamine or dibutyryl cAMP stimulated). Type of assay: cell-based, rabbit. The settings on record: Oryctolagus cuniculus. The procedure: The isolated parietal cell assay was conducted using the procedures of Batzri, S. et al., Biochemica et Biophysica Acta 508, 328 (1978) and Soll, A. H. Am. J. Physiol. 238, G366 (1980). Basically, parietal cells were isolated from the fundic mucosa of rabbit stomachs by a four-stage collagenase digestion process. The supernatant fractions from the last two stages of this process contain the individual parietal cells. This cell suspension was centrifuged and reconstituted in a modified Hank's buffer to contain 1-2×10^6 cells/ml. […] This accumulation was stimulated by histamine and was blocked by H2 antagonists. The cells were incubated with 0.4-0.5×10^6 cpm ^14 C-AP, with various concentrations of histamine as a stimulant, 1×10^-5 M isobutylmethylxanthine, and the test compound added in a 20 μl volume of buffer or DMSO. The flasks were incubated in a shaking water bath at 37° C. for 20 minutes. Two aliquots were then taken from each flask and cell pellets were collected by centrifugation. The pellets were solubilized with Protosol (New England Nuclear) and radioactivity determined by liquid scintillation spectrometry. Data is presented as the IC50 vhist, the concentration of compound required to inhibit ^14 C-AP accumulation in the histamine stimulated parietal cell by 50%.
When dibutyryl cAMP was used to stimulate the cells instead of histamine, a similar inhibition of ^14 C-AP accumulation was measured and the data are presented as the IC50 vcAMP, the concentration required to inhibit ^14 C-AP accumulation in the cAMP stimulated parietal cell by 50%.

The target in assay [1] is T1, parietal cell H^+ K^+ ATPase (Oryctolagus cuniculus, UniProt P27112).
T1 construct: determined in fundic mucosa from New Zealand white rabbits which were homogenized; from tissue; host or cells: fundic mucosa of New Zealand white rabbits, homogenized; membrane protein
T1 sequence (P27112 2-1035 limits assumed): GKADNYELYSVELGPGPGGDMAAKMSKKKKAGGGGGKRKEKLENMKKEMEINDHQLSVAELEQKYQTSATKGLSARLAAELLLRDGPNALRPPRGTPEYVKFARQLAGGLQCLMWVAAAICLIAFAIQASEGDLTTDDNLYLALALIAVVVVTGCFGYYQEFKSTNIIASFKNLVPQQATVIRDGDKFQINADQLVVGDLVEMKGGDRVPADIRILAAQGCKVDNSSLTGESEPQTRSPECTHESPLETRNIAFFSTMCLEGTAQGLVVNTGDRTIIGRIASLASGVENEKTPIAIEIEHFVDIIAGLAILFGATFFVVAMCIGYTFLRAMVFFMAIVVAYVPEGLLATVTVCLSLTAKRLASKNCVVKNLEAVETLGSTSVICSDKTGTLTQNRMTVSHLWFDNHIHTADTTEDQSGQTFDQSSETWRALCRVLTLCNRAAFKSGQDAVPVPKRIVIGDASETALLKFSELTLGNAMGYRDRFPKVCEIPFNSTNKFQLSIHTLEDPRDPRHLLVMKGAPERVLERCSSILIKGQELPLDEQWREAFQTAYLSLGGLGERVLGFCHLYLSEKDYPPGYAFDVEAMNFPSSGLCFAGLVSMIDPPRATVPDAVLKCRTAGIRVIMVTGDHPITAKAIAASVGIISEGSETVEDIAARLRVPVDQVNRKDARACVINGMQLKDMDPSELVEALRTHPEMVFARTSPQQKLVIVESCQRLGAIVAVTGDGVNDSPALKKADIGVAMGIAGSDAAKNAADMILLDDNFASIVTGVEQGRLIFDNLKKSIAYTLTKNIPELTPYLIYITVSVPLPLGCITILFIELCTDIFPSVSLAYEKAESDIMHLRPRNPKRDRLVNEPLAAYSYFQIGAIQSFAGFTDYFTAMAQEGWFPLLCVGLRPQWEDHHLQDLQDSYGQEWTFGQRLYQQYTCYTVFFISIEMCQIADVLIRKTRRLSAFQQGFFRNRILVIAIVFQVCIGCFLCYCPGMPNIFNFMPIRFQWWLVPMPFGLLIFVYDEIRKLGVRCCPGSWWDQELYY
T1 sequence (P18597 whole entry partner): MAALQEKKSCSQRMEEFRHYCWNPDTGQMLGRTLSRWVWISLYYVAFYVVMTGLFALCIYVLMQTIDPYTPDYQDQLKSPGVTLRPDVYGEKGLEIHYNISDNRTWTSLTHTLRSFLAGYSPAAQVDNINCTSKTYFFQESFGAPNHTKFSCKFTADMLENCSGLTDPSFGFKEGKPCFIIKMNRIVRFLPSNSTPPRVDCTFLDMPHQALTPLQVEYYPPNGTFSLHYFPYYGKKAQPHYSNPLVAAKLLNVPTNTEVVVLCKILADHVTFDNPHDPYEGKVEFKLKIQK
As to the kind of experiment: Inhibition of Parietal Cell H^+ K^+ ATPase. Type of assay: biochemical, New Zealand white rabbits. The following applies: read-out: % Inhibition at Concentration; for inhibition at 100 µM: at 10^-4 M. The procedure: The activity was measured in a 1 ml incubation volume containing 50 mM Tris pH 7.4, 2 mM MgCl2, 2 mM Na2 ATP, with or without 20 mM KCl and vehicle control (dimethylsulfoxide) or test compound added in a 0.02 ml volume. Typically, 20-50 μg membrane protein was added and the tubes were preincubated with test compound for 10 minutes at 37° C. Substrate, Na2 ATP, was then added and the tubes were incubated for another 15 minutes at 37° C. The reaction was stopped by the addition of 1 ml 14% trichloroacetic acid and the samples were centrifuged at 2,000 ×g for 10 minutes. The amount of inorganic phosphate present in an aliquot of supernatant was determined. H^+ K^+ ATPase activity was determined after correcting for the basal (Mg^++ only) enzyme activity present in the membrane preparation.

Assay [2] relates to acid output (gastric secretion). Description: Gastric Secretion (pylorus ligation, modified Shay). Type of assay: in vivo, male Charles River Sprague Dawley derived rats. The settings on record: i.d. or s.c., 4 hours after ligation; for % Acid Secreted at mpK: at 20 mpK; for response vs control in vivo at 40 mg/kg: at 40 mpK. How it is done:
The inhibitory activity of the compounds on acid output was tested using pylorus ligation in a modification of the procedure of Shay, H. et al., Gastroenterology 26, 906 (1954). Basically, male Charles River Sprague Dawley derived rats weighing 150-300 grams were deprived of food but not water for 18-24 hours prior to use. Water was withheld during the experiment, however. The rats were weighed, anesthetized with ether and the pylorus ligated according to the method of Shay et al., supra. Treatment or vehicle control was then administered intraduodenally (i.d.) or subcutaneously (s.c.). Rats were housed two/cage and sacrificed with CO2 four hours after ligation. The stomachs were removed, rinsed, and contents emptied into a graduated centrifuge tube. The tubes were centrifuged, the volume of gastric juice recorded, and any samples obviously contaminated by feces, food or blood were eliminated. A 1 ml aliquot of gastric juice was titrated with 0.1N NaOH to a pH of 7.0-7.4. The volume of gastric juice secreted, the acid concentration, and the product of the volume times the concentration, i.e., the total amount of acid secreted, were measured.

Where [3] appears, read: 20 min, histamine stimulated, 37° C., 20 minutes, read-out: IC50 vhist (inhibition of 14C-AP accumulation in the histamine stimulated parietal cell).
The mark [4] stands for this setting: dibutyryl cAMP stimulated, read-out: IC50 vcAMP (inhibition of 14C-AP accumulation in the cAMP stimulated parietal cell).
The mark [5] stands for this setting: Rattus norvegicus, read-out: % Acid Secreted at mpK.

Turning to `CN(CCCOc1ccc(-c2csc(-c3ccccc3)n2)cc1)Cc1ccccc1` [Example 11, 4-(4-Benzylmethylaminopropoxyphenyl)-2-phenylthiazole], the IC50 is 370 nM in the assay with parietal cells (setting [3]) and 210 nM with parietal cells (setting [4]). Further, the inhibition at 100 µM in assay [1] worked out at 39%. Also, the “% Acid Secreted at mpK” value in assay [2] is listed as 48%.
`CCCCN(CCCC)CCCOc1ccc(-c2csc(-c3ccc(C(F)(F)F)cc3)n2)cc1` [Example 20, 4-(4-Dibutylaminopropoxyphenyl)-2-(4-trifluoromethylphenyl)thiazole]: the half-maximal inhibitory concentration (IC50) with parietal cells (setting [3]) came to 2900 nM; with parietal cells (setting [4]), 2000 nM. In addition, the inhibition at 10.6 µM in assay [1] (at 10.6 μM) amounted to 50%. Moreover, the response vs control in vivo at 40 mg/kg in assay [2] (setting [5]) was determined as 40%.
Take `c1ccc(-c2nc(-c3ccc(OCCCN4CCCC4)cc3)cs2)cc1` [Example 9, 4-[4-(3-Pyrrolidino)propoxyphenyl]-2-phenylthiazole]: the figures for the IC50 with parietal cells (setting [3]) and in the assay with parietal cells (setting [4]) were 390 nM and less than 10000 nM, respectively. The inhibition at 32 µM in assay [1] (at 32 μM) is 50%. The “% Acid Secreted at mpK” value in assay [2] is recorded as 36%.
Regarding `CCCCN(CCCC)CCCOc1ccc(-c2csc(-c3ccc(OC)cc3)n2)cc1` [Example 17, 4-(4-Dibutylaminopropoxyphenyl)-2-(4-methoxyphenyl)thiazole], the half-maximal inhibitory concentration (IC50) turned out to be 480 nM with parietal cells (setting [3]) and 230 nM in the assay with parietal cells (setting [4]). In addition, the inhibition at 100 µM in assay [1] was found to be 33%. Further, the “% Acid Secreted at mpK” value in assay [2] is 4%.
As for `Clc1cc(-c2csc(-c3ccccc3)n2)cc(Cl)c1OCCCn1ccnc1` [Example 23, 4-[3,5-Dichloro-4-(1H-imidazol-1-yl)propoxyphenyl]-2-phenylthiazole], the figures for the IC50 in the assay with parietal cells (setting [3]) and in the assay with parietal cells (setting [4]) were 400 nM and 460 nM, respectively. Besides, the inhibition at 2.4 µM in assay [1] (at 2.4 μM) came to 50%. Also, the “% Acid Secreted at mpK” value in assay [2] is on record as 33%.
Consider `CCCCN(CCCC)CCCOc1ccc(-c2csc(-c3ccccc3)n2)cc1` [Example 1, 4-(4-Dibutylaminopropoxyphenyl)-2-phenylthiazole], for which the IC50 is 450 nM in the assay on parietal cells (setting [3]) and 420 nM in the assay on parietal cells (setting [4]). Also, in assay [1], the inhibition at 100 µM was 47%. Moreover, the response vs control in vivo at 17 mg/kg in assay [2] (Rattus norvegicus, at 17.0 mpK, read-out: % Acid Secreted at mpK) came out at 50%. For the same compound, in assay [2] (setting [5]), the response vs control in vivo at 40 mg/kg turned out to be 97%. The “% Acid Secreted at mpK” value in assay [2] was 75%.

(Values after US4791200A, “2-substituted-4-aryl-substituted thiazoles” (Ortho Pharmaceutical Corporation, priority 1987, dated 1988).)
